Measurements reported in US6855713B2, “Benzimidazole derivatives, a process for their manufacture and use as a medicine” (Boehringer Ingelheim Pharma KG, priority 2001, dated 2005).
Structures can show the parent of a compound that is named as a salt. Where two headings read alike, the source gives them in different places.

Target: T1, rh beta trypsin (Homo sapiens, UniProt P20231)
T1 construct: purchased Promega
Assay: Trypsin (tryptase) inhibition, cleavage of N-p-Gly-Pro-Lys-para-nitroaniline measured at 405 nm
Format: biochemical
Description: The compounds of the invention are notable for their effective trypsin-inhibiting property. The said capacity to inhibit trypsin activity was determined in accordance with the following trial descriptions.
The determinations are carried out in tris-HCl buffer (100 mM), that also contained calcium (5 mM) and heparin ([…]), at a pH of 7.4. As the standard, rh beta trypsin is used, this is commercially obtainable, for example, from Promega. A suitable substrate is N-p-Gly-Pro-Lys-para-nitroaniline in a concentration of 0.6 mM. The substrate is digested with trypsin, whereby p-nitro-aniline is obtained that can be measured at 405 nm. Normally, an incubation period of 5 minutes and an incubation temperature of 37° C. is chosen. For the enzyme activity, 0.91 U/ml are used. The determination is carriedout in an auto-analyser (Cobas Bio) from the firm Hoffmann LaRoche. The potential inhibitor substances are used in the screening procedure in concentrations of 10 μM, and the inhibition of the trypsin is given in percentages. At an inhibition in excess of 70%, the IC50 is determined (the concentration at which 50% of the enzyme activity is inhibited). After a 5-minute pre-incubation of the potential inhibiting substance, the substrate is added for the start of the reaction, whereby the production of p-nitro-aniline is taken, after 5 minutes, after testing the linearity, as a measure of the enzyme activity.

[1] = in vitro tests on the pro-drugs of formula IIA, read-out: IC50
[2] = in vitro, tris-HCl buffer pH 7.4 with calcium and heparin, substrate 0.6 mM, 5 minutes, 37° C., read-out: Trypsin-inhibiting property

T1 sequence (P20231 31-275): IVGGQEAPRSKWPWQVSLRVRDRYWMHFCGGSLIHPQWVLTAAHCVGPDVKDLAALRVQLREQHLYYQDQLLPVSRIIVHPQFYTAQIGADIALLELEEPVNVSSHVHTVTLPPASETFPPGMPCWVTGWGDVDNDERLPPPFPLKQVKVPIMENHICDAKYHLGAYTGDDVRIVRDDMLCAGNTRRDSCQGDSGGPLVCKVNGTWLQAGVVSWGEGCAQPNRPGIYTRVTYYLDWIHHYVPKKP

IC50 [1] [nM]	IC50 [2] [nM]	SMILES
2490		CCOC(=O)N=C(N)c1ccc(CCc2nc3cc(C(=O)N4CCC(NC(=O)c5ccccc5)CC4)ccc3n2C)cc1 [IIA6]
	1 to 20	COc1ccccc1C(=O)NC1CCN(C(=O)c2ccc3c(c2)nc(CCc2ccc(C(=N)N)cc2)n3C)CC1 [Example 50, 2-[2-(4-Amidinophenyl)-ethyl]-1-methyl-benzimidazole-5-yl-carboxylic acid-[4-(2-methoxy)-benzamidopiperidinyl)-amide]
	1 to 20	Cn1c(CCc2ccc(C(=N)N)cc2)nc2cc(C(=O)N3CCC(NC(=O)Nc4cccc(F)c4)CC3)ccc21 [Example 26, 4-[2-(5-{4-[3-(3-Fluoro-phenyl)-ureido]-piperidine-1-carbonyl}-1-methyl-1H-benzimidazole-2-yl)-ethyl]-benzamidine]
	1 to 20	COC(=O)c1cccc(NC(=O)N(C)C2CCN(C(=O)c3ccc4c(c3)nc(CCc3ccc(C(=N)N)cc3)n4C)CC2)c1 [Example 61, 2-[2-(4-Amidinophenyl)-ethyl]-1-methyl-benzimidazole-5-yl-carboxylic acid-{4-[3-(3-methoxycarbonyl)-phenyl-1-methyl-ureido]piperidinyl)-amide]
	1 to 20	Cn1c(CCc2ccc(C(=N)N)cc2)nc2cc(C(=O)N3CCC(NC(=O)Nc4ccc(Cl)cc4Cl)CC3)ccc21 [Example 35, 4-[2-(5-{4-[3-(2,4-Dichloro-phenyl)-ureido]-piperidine-1-carbonyl}-1-methyl-1H-benzimidazole-2-yl)-ethyl]-benzamidine]
	1 to 20	Cn1c(CCc2ccc(C(=N)N)cc2)nc2cc(C(=O)N3CCC(NC(=O)Nc4cccc(C(F)(F)F)c4)CC3)ccc21 [Example 32, 4-[2-(1-Methyl-5-{4-[3-(3-trifluoromethyl-phenyl)-ureido]-piperidine-1-carbonyl}-1H-benzimidazole-2-yl)-ethyl]-benzamidine]
	20 to 50	CCCCS(=O)(=O)NC1CCN(C(=O)c2ccc3c(c2)nc(CCc2ccc(C(=N)N)cc2)n3C)CC1 [Example 173]
	20 to 50	N=C(N)c1ccc(CCc2nc3cc(C(=O)N4CCC(NC(=O)c5ccccc5)CC4)ccc3n2C2CC2)cc1 [Example 196]
	1 to 20	CCCCS(=O)(=O)N(C)C1CCN(C(=O)c2ccc3c(c2)nc(CCc2ccc(C(=N)N)cc2)n3C)CC1 [Example 168]
	1 to 20	Cn1c(CCc2ccc(C(=N)N)cc2)nc2cc(C(=O)N3CCC(NC(=O)c4cccc(Cl)c4Cl)CC3)ccc21 [Example 49, 2-[2-(4-Amidinophenyl)-ethyl]-1-methyl-benzimidazole-5-yl-carboxylic acid-[4-(2,3-dichloro)-benzamidopiperidinyl)-amide]
	1 to 20	Cn1c(CCc2ccc(C(=N)N)cc2)nc2cc(C(=O)N3CCN(C/C=C/c4ccccc4)CC3)ccc21 [Example 1, [2-(4-amidinophenyl)-ethyl]-1-methyl-benzimidazole-5-yl-carboxylic acid-[4-(3-phenyl-allyl)-piperazinyl]-amide-dihydrochloride]
	1 to 20	COc1ccccc1NC(=O)NC1CCN(C(=O)c2ccc3c(c2)nc(CCc2ccc(C(=N)N)cc2)n3C)CC1 [Example 30, 4-[2-(5-{4-[3-(2-Methoxy-phenyl)-ureido]-piperidine-1-carbonyl}-1-methyl-1H-benzimidazole-2-yl)-ethyl]-benzamidine]
	0.1 to 1	COc1cccc(NC(=O)NC2CCN(C(=O)c3ccc4c(c3)nc(CCc3ccc(C(=N)N)cc3)n4C)CC2)c1 [Example 28, 4-[2-(5-{4-[3-(3-Methoxy-phenyl)-ureido]-piperidine-1-carbonyl}-1-methyl-1H-benzimidazole-2-yl)-ethyl]-benzamidine]
360		Cn1c(CCc2ccc(C(N)=NC(=O)c3ccccc3)cc2)nc2cc(C(=O)N3CCC(NC(=O)c4ccccc4)CC3)ccc21 [IIA17]
	1 to 20	CN(C(=O)Nc1cccc(Cl)c1Cl)C1CCN(C(=O)c2ccc3c(c2)nc(CCc2ccc(C(=N)N)cc2)n3C)CC1 [Example 55, 2-[2-(4-Amidinophenyl)-ethyl]-1-methyl-benzimidazole-5-yl-carboxylic acid-{4-[3-(2,3-dichloro)-phenyl-1-methyl-ureido]piperidinyl)-amide]
	1 to 20	CN(C1CCN(C(=O)c2ccc3c(c2)nc(CCc2ccc(C(=N)N)cc2)n3C)CC1)S(=O)(=O)c1cccc2ccccc12 [Example 169]
	1 to 20	Cn1c(CCc2ccc(C(=N)N)cc2)nc2cc(C(=O)N3CCC(NC(=O)NC4CCCCC4)CC3)ccc21 [Example 40, 4-(2-{5-[4-(3-Cyclohexyl-ureido)-piperidine-1-carbonyl]-1-methyl-1H-benzimidazole-2-yl}-ethyl)-benzamidine]

IC50 [1] [nM]	IC50 [2] [nM]	SMILES
	20 to 50	CN(C1CCN(C(=O)c2ccc3c(c2)nc(CCc2ccc(C(=N)N)cc2)n3C)CC1)S(=O)(=O)c1cccc(Cl)c1Cl [Example 171]
	0.1 to 1	Cn1c(CCc2ccc(C(=N)N)cc2)nc2cc(C(=O)N3CCC(NC(=O)c4cccc(Br)c4)CC3)ccc21 [Example 45, 2-[2-(4-Amidinophenyl)-ethyl]-1-methyl-benzimidazole-5-yl-carboxylic acid-[4-(3-bromo)-benzamidopiperidinyl)-amide]
	1 to 20	Cn1c(CCc2ccc(CN)cc2)nc2cc(C(=O)N3CCC(NC(=O)c4ccccc4)CC3)ccc21 [Example 15, 2-[2-(4-Aminomethylphenyl)-ethyl]-1-methyl-benzimidazole-5-yl-carboxylic acid-(4-benzamido-piperidinyl)-amide]
	1 to 20	COC(=O)c1cccc(NC(=O)NC2CCN(C(=O)c3ccc4c(c3)nc(CCc3ccc(C(=N)N)cc3)n4C)CC2)c1 [Example 57, 2-[2-(4-Amidinophenyl)-ethyl]-1-methyl-benzimidazole-5-yl-carboxylic acid-{4-[3-(3-methoxycarbonyl)phenylureido]piperidinyl}-amide]
	1 to 20	Cn1c(CCc2ccc(C(=N)N)cc2)nc2cc(C(=O)N3CCC(NC(=O)Nc4ccc(Br)cc4)CC3)ccc21 [Example 39, 4-[2-(5-{4-[3-(4-Bromo-phenyl)-ureido]-piperidine-1-carbonyl}-1-methyl-1H-benzimidazole-2-yl)-ethyl] -benzamidine]
	0.1 to 1	Cn1c(CCc2ccc(C(=N)N)cc2)nc2cc(C(=O)N3CCC(NC(=O)Nc4ccccc4Br)CC3)ccc21 [Example 37, 4-[2-(5-{4-[3-(2-Bromo-phenyl)-ureido]-piperidine-1-carbonyl}-1-methyl-1H-benzimidazole-2-yl)-ethyl]-benzamidine]
	1 to 20	Cn1c(CCc2ccc(C(=N)N)cc2)nc2cc(C(=O)N3CCC(NS(=O)(=O)/C=C/c4ccccc4)CC3)ccc21 [Example 167]
7910		CCCCCCCCOC(=O)N=C(N)c1ccc(CCc2nc3cc(C(=O)N4CCC(NC(=O)c5ccccc5)CC4)ccc3n2C)cc1 [IIA10]
	1 to 20	Cn1c(CCc2ccc(C(=N)N)cc2)nc2cc(C(=O)N3CCC(NC(=O)Nc4cccc(C(=O)O)c4)CC3)ccc21 [Example 62, [2-(4-Amidinophenyl)-ethyl]-1-methyl-benzimidazole-5-yl-carboxylic acid-{4-[3-(3-carboxyphenyl)-ureido]-piperidinyl}-amide]
	1 to 20	CCOCCCn1c(CCc2ccc(C(=N)N)cc2)nc2cc(C(=O)N3CCC(NC(=O)Nc4ccccc4)CC3)ccc21 [Example 20, 2-[2-(4-Amidinophenyl)-ethyl]-1-(3-ethoxy-propyl)-benzimidazol-5-yl-carbonsäure-[4-(3-phenyl-ureido)-piperidinyl]-amid-dihydrochlorid]
	0.1 to 1	CSc1cccc(NC(=O)NC2CCN(C(=O)c3ccc4c(c3)nc(CCc3ccc(C(=N)N)cc3)n4C)CC2)c1 [Example 58, 2-[2-(4-Amidinophenyl)-ethyl]-1-methyl-benzimidazole-5-yl-carboxylic acid-{4-[3-(3-methylsulfanyl)phenylureido]piperidinyl}-amide]
	1 to 20	CN(C1CCN(C(=O)c2ccc3c(c2)nc(CCc2ccc(C(=N)N)cc2)n3C)CC1)S(=O)(=O)/C=C/c1ccccc1 [Example 166]
	0.1 to 1	Cn1c(CCc2ccc(C(=N)N)cc2)nc2cc(C(=O)N3CCC(NC(=O)Nc4cccc(Cl)c4)CC3)ccc21 [Example 60, 2-[2-(4-Amidinophenyl)-ethyl]-1-methyl-benzimidazole-5-yl-carboxylic acid-{4-[3-(3-chloro)-phenylureido]piperidinyl}-amide]
	1 to 20	Cn1c(CCc2ccc(C(=N)N)cc2)nc2cc(C(=O)N3CCC(NC(=O)Cc4cccc5ccccc45)CC3)ccc21 [Example 189]
	0.1 to 1	Cn1c(CCc2ccc(C(=N)N)cc2)nc2cc(C(=O)N3CCC(NC(=O)Nc4ccccc4Cl)CC3)ccc21 [Example 29, 4-[2-(5-{4-[3-(2-Chloro-phenyl)-ureido]-piperidine-1-carbonyl}-1-methyl-1H-benzimidazole-2-yl)-ethyl]-benzamidine]
	1 to 20	Cn1c(CCc2ccc(C(=N)N)cc2)nc2cc(C(=O)N3CCC(NC(=O)Nc4c(F)cccc4F)CC3)ccc21 [Example 38, 4-[2-(5-{4-[3-(2,6-Difluoro-phenyl)-ureido]-piperidine-1-carbonyl}-1-methyl-1H-benzimidazole-2-yl)-ethyl] -benzamidine]
